The source of these data is patent publication US20240285644A1, “ASSESSING AND TREATING PROSTATE CANCER” (Mayo Foundation for Medical Education and Research, priority 2021, published 2024).

One test deals with LNCaP cells. Nature of the test: Quantitative colony forming assay, cell survival of antiandrogen-sensitive LNCaP cells. Conditions: for cell survival of LNCaP cells: increasing concentrations of recombinant human NRG-1, vehicle versus enzalutamide (3 μM). The format is cell-based. From the text: It was next examined whether NRG-1 polypeptides differentially affect antiandrogen-sensitive and resistant prostate cancer cells. Antiandrogen-sensitive LNCaP prostate cancer cells express androgen receptor, whereas antiandrogen-resistant Du145 and PC3 cells express very limited androgen receptor (FIG. 3A).
The paradoxical toxic and salutary effects of NRG-1 polypeptides on antiandrogen-sensitive versus antiandrogen-resistant cells mirrors the outcomes in CSPC and CRPC patients, respectively.
LNCaP cells were then transfected with control shRNA versus shRNA targeting HER3 (FIG. 8A). Knockdown of HER3 rescued LNCaP cells from NRG-1- and enzalutamide-induced cell death (FIG. 7D and FIG. 8B). Relatedly, knockdown of HER2—but not HER4—reduces or eliminates Du145 cell benefit from NRG-1 polypeptide treatment (FIG. 8C-8D). To further confirm that HER2/HER3 heterodimerization can mediate a pro-survival response to NRG-1 polypeptides in CRPC, LNCaP cells were treated with lapatinib that induces HER2/HER3 heterodimerization.

A further test has as its system NRG-1. Nature of the test: Blood levels of NRG-1 in patients with cancer before and during PARP inhibitor treatment. The format is in vivo, human. As to conditions: two patients with cancer (001 niraparib, 002 olaparib), Day 0 versus Days 7, 14.

Entries after “also recorded” stand apart in the source; their conditions may differ.

Description for NRG-1: Blood levels of NRG-1 of five patients with cancer were measured prior to and during treatment with PARP inhibitors.

Turning to `CNC(=O)c1ccc(N2C(=S)N(c3ccc(C#N)c(C(F)(F)F)c3)C(=O)C2(C)C)cc1F` [enzalutamide], the “cell survival of LNCaP cells” value in the test with LNCaP cells is on record as “function in an additive manner”; in the test on LNCaP cells (listed as Enz) it was “induced death of LNCaP cells in an additive fashion”.
`CS(=O)(=O)CCNCc1ccc(-c2ccc3ncnc(Nc4ccc(OCc5cccc(F)c5)c(Cl)c4)c3c2)o1` [lapatinib]: the “effect of pre-treatment on NRG-1- and antiandrogen-mediated death of LNCaP cells” value in the test with LNCaP cells (pre-treatment with lapatinib, then NRG-1 and enzalutamide) is “rescues LNCaP cells from antiandrogen enzalutamide and NRG-1; also recorded: abolished NRG-1- and antiandrogen-mediated cell death”.
Regarding `NC(=O)c1cccc2cn(-c3ccc([C@@H]4CCCNC4)cc3)nc12` [niraparib], in the test on NRG-1, the “blood levels of NRG-1” value was “reduced over the course of treatment”.
In the case of `O=C(c1cc(Cc2n[nH]c(=O)c3ccccc23)ccc1F)N1CCN(C(=O)C2CC2)CC1` [olaparib], the “blood levels of NRG-1” value is on record as “reduced over the course of treatment” with NRG-1 and “reduced” with NRG-1 (listed as Olaparib).
